Experiments:
Serine protease 1 = biological target: T1, Serine protease 1 (Bos taurus, UniProt P00760); experiment: Tested for the Inhibition of the catalytic activity of bovine trypsin at 25 degree C and pH 7.5.
T1 sequence (P00760 whole entry): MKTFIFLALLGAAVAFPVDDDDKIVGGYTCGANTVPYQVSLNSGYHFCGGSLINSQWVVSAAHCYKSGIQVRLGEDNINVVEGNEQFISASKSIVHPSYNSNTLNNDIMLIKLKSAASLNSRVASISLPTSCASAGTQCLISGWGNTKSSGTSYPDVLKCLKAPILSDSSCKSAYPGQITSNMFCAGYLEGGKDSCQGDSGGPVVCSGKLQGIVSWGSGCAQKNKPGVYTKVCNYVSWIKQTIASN

Plasminogen = Plasminogen (Homo sapiens, UniProt P00747); experiment: Tested for the Inhibition of the catalytic activity of human plasmin at 25 degree C and pH 7.5.
Chain of Plasminogen (P00747 97-580 limits assumed): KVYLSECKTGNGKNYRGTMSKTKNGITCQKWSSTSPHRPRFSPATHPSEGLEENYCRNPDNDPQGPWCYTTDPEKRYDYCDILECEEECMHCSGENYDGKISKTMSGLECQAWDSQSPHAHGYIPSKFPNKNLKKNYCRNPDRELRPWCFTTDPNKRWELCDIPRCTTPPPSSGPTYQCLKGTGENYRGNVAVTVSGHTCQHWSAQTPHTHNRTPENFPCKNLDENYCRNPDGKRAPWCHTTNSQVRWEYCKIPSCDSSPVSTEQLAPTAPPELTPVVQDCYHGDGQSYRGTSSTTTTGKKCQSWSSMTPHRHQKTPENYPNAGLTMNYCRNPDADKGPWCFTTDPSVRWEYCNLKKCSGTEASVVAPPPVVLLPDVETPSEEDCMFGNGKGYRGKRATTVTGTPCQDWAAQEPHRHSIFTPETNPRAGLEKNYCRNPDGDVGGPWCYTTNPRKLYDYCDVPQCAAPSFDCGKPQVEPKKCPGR
Chain of Plasminogen (P00747 581-810 limits assumed): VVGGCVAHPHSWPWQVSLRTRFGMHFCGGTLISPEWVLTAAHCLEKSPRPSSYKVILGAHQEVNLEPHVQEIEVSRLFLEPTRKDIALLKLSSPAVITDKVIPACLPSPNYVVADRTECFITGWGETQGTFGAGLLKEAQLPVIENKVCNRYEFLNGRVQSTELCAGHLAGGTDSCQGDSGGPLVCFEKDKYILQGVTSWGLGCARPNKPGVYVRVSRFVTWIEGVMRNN

Prothrombin = Prothrombin (Homo sapiens, UniProt P00734)
Description: Tested for the Inhibition of the catalytic activity of human Thrombin at 25 degree C and pH 7.5.

| SMILES | Ki (Serine protease 1) | Ki (Plasminogen) | Ki (Prothrombin) |
| --- | --- | --- | --- |
| Nc1ccncc1 [DALFAMPRIDINE] | > 2000 µM | > 2000 µM | > 2000 µM |
| O=C(CNS(=O)(=O)c1ccccc1)N[C@H](CCNc1ccncc1)C(=O)N1CCCCC1 | > 500 µM | > 500 µM | 10 µM |
| O=S(=O)(NCCc1cccc(OCCNc2ccncc2)c1)c1ccc(Cl)cc1 | > 500 µM | > 500 µM | 2.8 µM |
| c1ccc(OCCNc2ccncc2)cc1 | > 500 µM | > 500 µM | 120 µM |
| Cc1cccc(OCCNc2ccncc2)c1 | > 500 µM | > 500 µM | 30 µM |
| O=S(=O)(Nc1cccc(OCCNc2ccncc2)c1)c1ccc2ccccc2c1 | > 500 µM | > 500 µM | 7 µM |
| OCCNc1ccncc1 | > 500 µM | > 500 µM | > 500 µM |
| O=C(CNS(=O)(=O)c1ccc2ccccc2c1)N[C@@H](CCNc1ccncc1)C(=O)N1CCCCC1 | > 500 µM | > 500 µM | 300 µM |
| O=C(CNS(=O)(=O)c1ccc2ccccc2c1)N[C@H](CCNc1ccncc1)C(=O)N1CCCCC1 | > 500 µM | > 500 µM | 0.2 µM |
| O=S(=O)(Nc1cccc(OCCNc2ccncc2)c1)c1ccc(Cl)cc1 | > 500 µM | > 500 µM | 0.7 µM |
| O=S(=O)(Nc1cccc(OCCNc2ccncc2)c1)c1ccccc1 | > 500 µM | > 500 µM | 0.3 µM |
| O=C(CNS(=O)(=O)c1ccc(Cl)cc1)N[C@H](CCNc1ccncc1)C(=O)N1CCCCC1 | > 500 µM | > 500 µM | 2 µM |
| CN(c1cccc(OCCNc2ccncc2)c1)S(=O)(=O)c1ccccc1 | > 500 µM | > 500 µM | 0.07 µM |
| N=C(N)c1ccc(COc2cccc(CCNS(=O)(=O)c3ccc(Cl)cc3)c2)cc1 | 1.7 µM | 34 µM | 1.5 µM |
